Source: publication PMC8355244, “A fragment-based approach identifies an allosteric pocket that impacts malate dehydrogenase activity” (Communications Biology, 2021)

How the values were obtained:
[1] = Precipitation / turbidity of compound in assay buffer (600 nm); assay type: physicochemical; conditions: activity screening buffer, 500 µM
Procedure: 1.3 µL of derivatives of 4-phenylthiazol-2-amine in 100% DMSO were mixed with 237.7 µL of a mastermix of WT PfMDH previously incubated with NAD+. The final compound concentration used in this screening was 500 µM in the presence of 0.5% (v/v) DMSO. The microplate was sealed with silver foil for 1-h incubation at 25–35 °C. Finally, reactions in both the samples and control wells were started upon the addition of 13.0 µL of 5 mM malate). At the end of the experiments, the reaction of the plate was spectrophotometrically assayed at 600 nm in order to identify turbidity due to the low solubility of the compound. All measurements were performed in duplicate.

PfMDH = target: T1, PfMDH (Plasmodium falciparum, UniProt Q6VVP7); experiment: Thermal shift assay (TSA); assay type: binding
T1 construct: The full-length WT PfMDH gene was cloned into pETM-13; made in house; host or cells: E. coli Rosetta 2 (DE3) pLysS
T1 sequence (Q6VVP7 entry or part of it): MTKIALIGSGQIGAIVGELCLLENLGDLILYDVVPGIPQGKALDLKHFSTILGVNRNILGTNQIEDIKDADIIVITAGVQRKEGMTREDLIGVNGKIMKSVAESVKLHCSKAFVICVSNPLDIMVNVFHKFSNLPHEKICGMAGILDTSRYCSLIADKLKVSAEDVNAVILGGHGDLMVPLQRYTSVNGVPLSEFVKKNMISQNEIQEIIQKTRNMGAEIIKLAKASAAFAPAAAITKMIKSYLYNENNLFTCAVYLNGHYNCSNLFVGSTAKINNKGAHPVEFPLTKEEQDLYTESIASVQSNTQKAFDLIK
Procedure: The TSA experiment was conducted in a BioRad CSX 96 (Biorad). Each reaction consisted of 1 mM of compound (100 mM stock in 100% (v/v) DMSO) and 10 μM PfMDH in 100 mM Na–phosphate buffer pH 7.4, 400 mM NaCl, and 10× Sypro Orange (Invitrogen) for a total volume of 100 μl. Control experiments were performed with 1% (v/v) DMSO. Inflection points were determined using BioRad CFX96™ control software. Generally, a temperature increase of over 1 °C is interpreted as a result of the stabilization of the protein-ligand interaction. On the contrary, a negative shift is considered a destabilization caused by the fragment.

Substance: 4-(3-(trifluoromethyl)phenyl)thiazol-2-amine [compound 8a]
- precipitation of compound in the buffer [1]: precipitation of compound was observed
- ΔTm (PfMDH; 1 mM compound vs DMSO control): −10 °C
- Tm (PfMDH; 1 mM compound, 10 μM PfMDH, DMSO control Tm 58): 48.0 ± 1.0 °C
